Laboratory results reported in ChEMBL document CHEMBL1201862, “PubChem BioAssay data set” (2004).
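Cultured in 96-well plates, cells were exposed to test compound for 48 hours across five concentrations. GI50 = concentration required for 50% inhibition of growth.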 Activity calls are given as the source filed them. Rule as the data show it: active = GI50 up to about 1.1 µM and inactive = higher.

Key:
Assay in all cases: NCI-60 cell line screen, 48 h
SNB-78 = system: SNB-78
SN12C = system: SN12C
UACC-257 = system: UACC-257
XF498 = system: XF498
NCI-H23 = system: NCI-H23
RXF 393 = system: RXF 393
CCRF-CEM = system: CCRF-CEM
EKVX = system: EKVX
MOLT-4 = system: MOLT-4
NCI-H226 = system: NCI-H226
CAKI-1 = system: CAKI-1
SF-539 = system: SF-539
TK-10 = system: TK-10
786-0 = system: 786-0
LXFL 529 = system: LXFL 529
SNB-19 = system: SNB-19
K562 = system: K562
HT-29 = system: HT-29
HCT-116 = system: HCT-116
KM-20L2 = system: KM-20L2
SF-268 = system: SF-268
SK-OV-3 = system: SK-OV-3
SR = system: SR
UO-31 = system: UO-31
ACHN = system: ACHN
HOP-18 = system: HOP-18
UACC-62 = system: UACC-62
RPMI-8226 = system: RPMI-8226
U-251 = system: U-251
OVCAR-8 = system: OVCAR-8
HCC 2998 = system: HCC 2998
KM12 = system: KM12
NCI-H460 = system: NCI-H460
SK-MEL-5 = system: SK-MEL-5
OVCAR-4 = system: OVCAR-4
HOP-62 = system: HOP-62
M14 = system: M14
SK-MEL-2 = system: SK-MEL-2
HL-60 = system: HL-60
DMS-114 = system: DMS-114
IGROV-1 = system: IGROV-1
Malme-3M = system: Malme-3M
OVCAR-5 = system: OVCAR-5
DMS-273 = system: DMS-273
HCT-15 = system: HCT-15
COLO 205 = system: COLO 205
HOP-92 = system: HOP-92
M19-MEL = system: M19-MEL
A549 = system: A549
SK-MEL-28 = system: SK-MEL-28
SW-620 = system: SW-620
DLD-1 = system: DLD-1
SF-295 = system: SF-295
A498 = system: A498
NCI-H522 = system: NCI-H522
SNB-75 = system: SNB-75
LOX IMVI = system: LOX IMVI
OVCAR-3 = system: OVCAR-3

In the case of `COc1ccc([C@@H]2CC(=O)NCCCNCCCCNCCCN2)cc1`, the GI50 (SNB-78) is reported as > 100 µM (inactive), the GI50 (SN12C) is reported as > 100 µM (inactive) and the GI50 (UACC-257) is reported as > 100 µM (inactive). For the same compound, the GI50 (XF498) was > 100 µM (inactive), the GI50 (NCI-H23) was > 100 µM (inactive) and the GI50 (RXF 393) was > 100 µM (inactive). The GI50 (CCRF-CEM) was > 100 µM (inactive), the GI50 (EKVX) was > 100 µM (inactive) and the GI50 (MOLT-4) was > 100 µM (inactive). For the same compound, the GI50 (NCI-H226) was 79.6 µM (inactive), the GI50 (CAKI-1) was > 100 µM (inactive) and the GI50 (SF-539) was > 100 µM (inactive). For the same compound, the GI50 (TK-10) was > 100 µM (inactive), the GI50 (786-0) was > 100 µM (inactive) and the GI50 (LXFL 529) was > 100 µM (inactive). For the same compound, the GI50 (SNB-19) was > 100 µM (inactive), the GI50 (K562) was > 100 µM (inactive) and the GI50 (HT-29) was > 100 µM (inactive). The GI50 (HCT-116) was > 100 µM (inactive), the GI50 (KM-20L2) was > 100 µM (inactive) and the GI50 (SF-268) was > 100 µM (inactive). For the same compound, the GI50 (SK-OV-3) was > 100 µM (inactive), the GI50 (SR) was > 100 µM (inactive) and the GI50 (UO-31) was > 100 µM (inactive). The GI50 (ACHN) was > 100 µM (inactive), the GI50 (HOP-18) was 59.6 µM (inactive) and the GI50 (UACC-62) was > 100 µM (inactive). The GI50 (RPMI-8226) was > 100 µM (inactive), the GI50 (U-251) was > 100 µM (inactive) and the GI50 (OVCAR-8) was > 100 µM (inactive). The GI50 (HCC 2998) was > 100 µM (inactive), the GI50 (KM12) was > 100 µM (inactive) and the GI50 (NCI-H460) was > 100 µM (inactive). For the same compound, the GI50 (SK-MEL-5) was > 100 µM (inactive), the GI50 (OVCAR-4) was > 100 µM (inactive) and the GI50 (HOP-62) was > 100 µM (inactive). For the same compound, the GI50 (M14) was > 100 µM (inactive), the GI50 (SK-MEL-2) was > 100 µM (inactive) and the GI50 (HL-60) was > 100 µM (inactive). For the same compound, the GI50 (DMS-114) was > 100 µM (inactive), the GI50 (IGROV-1) was > 100 µM (inactive) and the GI50 (Malme-3M) was > 100 µM (inactive). For the same compound, the GI50 (OVCAR-5) was > 100 µM (inactive), the GI50 (DMS-273) was > 100 µM (inactive) and the GI50 (HCT-15) was over 100 µM. For the same compound, the GI50 (COLO 205) was > 100 µM (inactive), the GI50 (HOP-92) was > 100 µM (inactive) and the GI50 (M19-MEL) was > 100 µM (inactive). The GI50 (A549) was > 100 µM (inactive), the GI50 (SK-MEL-28) was > 100 µM (inactive) and the GI50 (SW-620) was > 100 µM (inactive). The GI50 (DLD-1) was > 100 µM (inactive), the GI50 (SF-295) was > 100 µM (inactive) and the GI50 (A498) was > 100 µM (inactive). For the same compound, the GI50 (NCI-H522) was 30.8 µM (inactive) and the GI50 (SNB-75) was > 100 µM (inactive).
With `CC(=O)c1ccc(NC(=O)C(=O)C(C(=O)c2ccc(Cl)c(Cl)c2)C2OC(=O)c3ccccc32)cc1` (stereo unspecified) the GI50 (SNB-78) was 12.9 µM (inactive), the GI50 (SN12C) was 21.6 µM (inactive) and the GI50 (UACC-257) was 23.4 µM (inactive). For the same compound, the GI50 (XF498) was 22.5 µM (inactive), the GI50 (LOX IMVI) was 14.4 µM (inactive) and the GI50 (NCI-H23) was 13.6 µM (inactive). For the same compound, the GI50 (RXF 393) was 4.54 µM (inactive), the GI50 (CCRF-CEM) was 73.3 µM (inactive) and the GI50 (EKVX) was 40 µM (inactive). The GI50 (MOLT-4) was > 100 µM (inactive), the GI50 (NCI-H226) was 5.15 µM (inactive) and the GI50 (CAKI-1) was 14.6 µM (inactive). The GI50 (TK-10) was 31.4 µM (inactive), the GI50 (786-0) was 16.1 µM (inactive) and the GI50 (LXFL 529) was 11 µM (inactive). The GI50 (SNB-19) was 25.5 µM (inactive), the GI50 (K562) was 23.3 µM (inactive) and the GI50 (HT-29) was 25.3 µM (inactive). For the same compound, the GI50 (HCT-116) was 13 µM (inactive), the GI50 (KM-20L2) was 34.4 µM (inactive) and the GI50 (SF-268) was 16.3 µM (inactive). The GI50 (SK-OV-3) was 59.8 µM (inactive), the GI50 (SR) was > 100 µM (inactive) and the GI50 (UO-31) was 24.4 µM (inactive). For the same compound, the GI50 (ACHN) was 20.5 µM (inactive), the GI50 (HOP-18) was 12.3 µM (inactive) and the GI50 (UACC-62) was 19.4 µM (inactive). For the same compound, the GI50 (U-251) was 10.1 µM (inactive), the GI50 (OVCAR-8) was 12.5 µM (inactive) and the GI50 (HCC 2998) was 13.7 µM (inactive). The GI50 (KM12) was 20.1 µM (inactive), the GI50 (NCI-H460) was 13.2 µM (inactive) and the GI50 (OVCAR-4) was 26.5 µM (inactive). For the same compound, the GI50 (HOP-62) was 18.9 µM (inactive), the GI50 (M14) was 17.7 µM (inactive) and the GI50 (HL-60) was 28.1 µM (inactive). The GI50 (DMS-114) was 13.4 µM (inactive), the GI50 (IGROV-1) was 29.7 µM (inactive) and the GI50 (Malme-3M) was 5.97 µM (inactive). The GI50 (OVCAR-5) was 21.5 µM (inactive), the GI50 (DMS-273) was 22.1 µM (inactive) and the GI50 (HCT-15) was 16.8 µM. The GI50 (COLO 205) was 15.1 µM (inactive), the GI50 (HOP-92) was 24.5 µM (inactive) and the GI50 (A549) was 21.4 µM (inactive). The GI50 (SW-620) was 21.2 µM (inactive), the GI50 (DLD-1) was 23.8 µM (inactive) and the GI50 (A498) was 16.6 µM (inactive). For the same compound, the GI50 (NCI-H522) was 9.38 µM (inactive) and the GI50 (OVCAR-3) was 16.9 µM (inactive).
